Patent publication US7897574B2, “Pharmaceutical composition for treating haemorrhagic shock and its consecutive symptoms” (Ikaria Development Subsidiary Two LLC, priority 2005, dated 2011)

How the values were obtained:
[1] = target: T1, recombinant human VE-cadherin FC fusion protein (Homo sapiens, UniProt P33151); experiment: ELISA: binding of FLAG-tagged peptide to coated VE-cadherin; settings: VE-cadherin coated 8 nM/ml
T1 construct: purchased R&D Systems, Minneapolis
Text: We have developed a modified ELISA working with the same principles described by others, but the purpose of the herein described ELISA is not to quantify fibrin degradation products, but to search for proteins, peptides or compounds which interfere with the binding of the Bbeta15-42 sequence and the VE-cadherin. […] Into this system one can introduce any other additional substance and measure if this substance inhibits VE-cadherin/Bbeta15-42 binding.
In detail, 96 well protein immobilizer plates (Exiqon, Vedbaek, DK) were coated with recombinant human VE-cadherin FC fusion protein (8 nM/ml; R&D Systems, Minneapolis) in PBS and were left overnight at 4° C. Plates were then washed and incubated with peptide Bβ15-42 ([…]) tagged with a FLAG-sequence (DYKDDDDK) at the C-terminus of the peptide or with a FLAG-tagged random peptide ([…]) at a concentration of 0-80 μMol/ml. After washing, bound FLAG-tagged peptide was detected by incubation with a peroxidase-labelled anti-FLAG antibody (Sigma, St. Louis, USA) and chromogenic substrate. Optical density was determined by an ELISA plate reader set at a wavelength of 450 nm. Data represent the mean of three independent experiments, each performed in triplicates.

[2] = system: Domestic male landrace pigs; experiment: Hemorrhagic shock in domestic pigs; assay type: in vivo, pig
Procedure: Domestic male landrace pigs weighing 20-35 kg were fed a standard diet and received water ad libitum. All procedures were performed in concurrence with the AAALAC guidelines and according to the Guide for the Care of Laboratory Animals (Department of Health and Human Services, National Institutes of Health, Publication Nr. 86-23). Pigs were premedicated with azaperon (4 mg/kg). The ear vein was cannulated and the anesthetic propofol was applied. The animals were fully instrumented and equlibrated for 1 hr in order to recieve a stable baseline. Subsequently, the animals (n=16) were exsanguinated until a mean arterial pressure of 40 mm Hg was achieved. They were kept at this level constituting a hemorrhagic shock for 1 hr. After this time the lost blood volume was resubstituted with shed blood and salt solutions (cristalloids). In addition the animals received a bolus dose of the peptide Bβ15-42 (n=8) or a random sequence peptide (n=8) in a dose of […] each as a single intravenous bolus. During the ensuing reperfusion period over the duration of 5 hrs, Horrowitz index (measuring blood oxigenation), PEEP (positive end-expiratory pressure in mm Hg) and cardiac ejection volume were determined at various timepoints.
In the following tables the following timepoints were used:
• Timepoint 1: 1 hr before hemorrhagic shock • Timepoint 2: during hemorrhagic shock • Timepoint 3: 1 hr after the start of reperfusion • Timepoint 4: 3 hrs after the start of reperfusion • Timepoint 5: 5 hrs after the start of reperfusion

[3] = in vivo, ischemia/reperfusion; WO 02/48180; cited from earlier work
[4] = system: human umbilical vein endothelial cells (HUVEC); experiment: Inhibition of the release of interleukin-6 from endothelial cells; assay type: cell-based; settings: 4 hrs
Procedure: In addition we have identified a specific assay for the determination of the claimed activity of the peptides, which consists of measurement of the inhibition of the release of interleukin-6 from endothelial cells. […] This assay is therefore also part of the invention.
96-well cell culture plates were coated with 1% gelatine. Into each well, approx. 23,000 human umbilical vein endothelial cells (HUVEC) in 200 μl of medium were pipetted. The HUVECs were taken from passage 4 form a pool of four different donors. The medium used for dilution was standard medium with 10% FCS, ECGS in Iscove's modified Dulbecco medium (Petzelbauer et al., J Immunol. 151:5062-5072, 1993). Within approx. 18 hrs at 37° C. in an incubator, a confluent cell monolayer is formed. The supernatant was removed and replaced with medium containing either NDSK-II alone or NDSK-II plus peptide Bβ15Δ([…]).
The total final volume was 200 μl. After 4 hrs of incubation at 37° C. under 5% CO2, the cell culture supernatant was again removed and centrifuged for 10 min at 4° C. at 3000 U/min. The concentration of interleukin-6 (IL-6) was measured using a commercial assay (IL-6 Quantikine Immonuassay (R&D Sytems; Catalog#: D6050; Lot: 231361). Calibration was done according to the standard protocol supplied by the assay manufacturer with various dilutions of recombinant IL-6 and medium. Readings of the optical density were taken at a wavelength of 450 nm with a reference wavelength of 550 nm.

[5] = Timepoint 1: 1 hr before hemorrhagic shock (before dosing)
[6] = Timepoint 2: during hemorrhagic shock (before dosing)
[7] = Timepoint 3: 1 hr after the start of reperfusion, 2.4 mh/kg single intravenous bolus
[8] = Timepoint 4: 3 hrs after the start of reperfusion, 2.4 mh/kg single intravenous bolus
[9] = Timepoint 5: 5 hrs after the start of reperfusion, 2.4 mh/kg single intravenous bolus

T1 sequence (P33151 with tags, fused parts or gaps limits assumed): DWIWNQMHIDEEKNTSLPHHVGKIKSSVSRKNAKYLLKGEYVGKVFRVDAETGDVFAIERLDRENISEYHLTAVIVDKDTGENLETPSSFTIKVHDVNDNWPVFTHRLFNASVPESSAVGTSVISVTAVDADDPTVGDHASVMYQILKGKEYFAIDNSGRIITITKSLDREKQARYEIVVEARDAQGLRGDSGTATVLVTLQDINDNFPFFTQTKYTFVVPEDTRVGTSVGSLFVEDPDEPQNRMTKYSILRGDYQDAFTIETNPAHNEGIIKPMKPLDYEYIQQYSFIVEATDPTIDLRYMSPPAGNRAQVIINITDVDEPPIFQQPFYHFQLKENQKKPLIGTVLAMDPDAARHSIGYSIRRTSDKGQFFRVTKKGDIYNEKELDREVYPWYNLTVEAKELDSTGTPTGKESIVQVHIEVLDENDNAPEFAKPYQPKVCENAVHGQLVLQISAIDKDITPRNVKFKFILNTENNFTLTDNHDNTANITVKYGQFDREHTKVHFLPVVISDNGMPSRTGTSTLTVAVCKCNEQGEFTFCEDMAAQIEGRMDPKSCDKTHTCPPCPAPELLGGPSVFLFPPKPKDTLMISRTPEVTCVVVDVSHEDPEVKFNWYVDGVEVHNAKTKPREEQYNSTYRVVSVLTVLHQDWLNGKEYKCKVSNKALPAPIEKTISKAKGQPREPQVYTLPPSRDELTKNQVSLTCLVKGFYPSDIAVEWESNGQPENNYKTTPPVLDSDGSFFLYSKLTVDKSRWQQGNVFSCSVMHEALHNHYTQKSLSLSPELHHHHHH

With “15-42 FLAG: peptide Bβ15-42 (GHRPLDKKREEAPSLRPAPPPISGGGYR) tagged with a FLAG-sequence (DYKDDDDK) at the C-terminus (GHRPLDKKREEAPSLRPAPPPISGGGYRDYKDDDDK)” the “binding to VE-cadherin, optical density (450 nm), mean” value (“binding to VE-cadherin” below) ([1]; FLAG-tagged peptide 0.23 μM/ml) was 0.01, the “binding to VE-cadherin” value ([1]; FLAG-tagged peptide 0.7 μM/ml) was 0.02 and the “binding to VE-cadherin” value ([1]; FLAG-tagged peptide 2.3 μM/ml) was 0.08. For the same substance, the “binding to VE-cadherin” value ([1]; FLAG-tagged peptide 7 μM/ml) was 0.33, the “binding to VE-cadherin” value ([1]; FLAG-tagged peptide 14 μM/ml) was 0.92 and the “binding to VE-cadherin” value ([1]; FLAG-tagged peptide 21 μM/ml) was 1.3. The “binding to VE-cadherin” value ([1]; FLAG-tagged peptide 35 μM/ml) was 1.5, the “binding to VE-cadherin” value ([1]; FLAG-tagged peptide 46 μM/ml) was 1.93 and the “binding to VE-cadherin” value ([1]; FLAG-tagged peptide 70 μM/ml) was 2.1.

With “GHRPLDKKREEAPSLRPAPPPISGGGYR [peptide Bβ15-42, peptide matching amino acids 15-42 of the Bβ chain of human fibrin]” the “EV (cardiac ejection volume)” value [2, 5] was 44 ± 2 mL, the “Horrowitz Index (blood oxigenation)” value [2, 5] was 465 +/− 20 and the “PEEP (positive end-expiratory pressure)” value [2, 5] was 4 +/− 0.1 mmHg. The “EV (cardiac ejection volume)” value [2, 6] was 6 ± 1 mL, the “Horrowitz Index (blood oxigenation)” value [2, 6] was 450 +/− 20 and the “PEEP (positive end-expiratory pressure)” value [2, 6] was 4 +/− 0.1 mmHg. The “EV (cardiac ejection volume)” value [2, 7] was 31 ± 4 mL, the “Horrowitz Index (blood oxigenation)” value [2, 7] was 420 +/− 10 and the “PEEP (positive end-expiratory pressure)” value [2, 7] was 4.1 +/− 0.2 mmHg. For the same substance, the “EV (cardiac ejection volume)” value [2, 8] was 32 ± 3 mL, the “Horrowitz Index (blood oxigenation)” value [2, 8] was 410 +/− 20 and the “PEEP (positive end-expiratory pressure)” value [2, 8] was 4.2 +/− 0.3 mmHg. The “EV (cardiac ejection volume)” value [2, 9] was 37 ± 4 mL, the “Horrowitz Index (blood oxigenation)” value [2, 9] was 420 +/− 30 and the “PEEP (positive end-expiratory pressure)” value [2, 9] was 4.3 +/− 0.2 mmHg. For the same substance, the “myocardial infarct size (in words)” value [3] was “reduces myocardial infarct sizes”, the IL-6 concentration ([4]; 0.3 μg/ml NDSK-II + 10 μg/ml peptide) was 15 ± 2 pg/mL and the IL-6 concentration ([4]; 3 μg/ml NDSK-II + 10 μg/ml peptide) was 12 ± 3(p < 0.05 cmpd with pg/ml. For the same substance, the IL-6 concentration ([4]; 30 μg/ml NDSK-II + 10 μg/ml peptide) was 13 ± 1(p < 0.05 cmpd with pg/ml.
